Reference: patent US20200246347A1, “Substituted Pyrrolopyridine-Derivatives” (BAYER PHARMA AKTIENGESELLSCHAFT, priority 2017, published 2020)

How the values were obtained:
[1] = test system: pSer376-SLP-76; experiment: Phosphorylation assay in human cell line (Jurkat E6.1 overexpressing FLAG-tagged SLP-76, a-CD3 stimulated); assay type: cell-based; details: 30 min at 37° C., Jurkat E6.1 cells; for % amount of pSer376-SLP-76 @ 10 μM: 10 μM compound; for % amount of pSer376-SLP-76 @ 20 μM: 20 μM compound
Method: Phosphorylation assays were carried out in Jurkat E6.1 cells from American Type Culture Collection (ATCC) stably overexpressing human FLAG-tagged SLP-76 (proprietary). […] Applied compounds were tested at either fixed concentration of 10 μmol/L and 20 μmol/L or in a 8 point dose response titration of increase compound concentration with 10 nmol/L. 50 nmol/L. 100 nmol/L. 500 nmol/L. 1 μmol/L. 5 μmol/L. 10 μmol/L and 20 μmol/L in triplicates. The cells were washed once in phosphate-buffered saline (pH 7.4). Cells were lysed using a lysis buffer containing 50 mmol/L Tris-Cl (pH 7.5). 150 mM NaCl. 2 mM EDTA. 1% Triton-X 100. 0.5% Na-DOC. 0.1% SDS. […] Probe antibodies used were a rabbit monoclonal antibody supernatant raised against human phospho-Ser376-SLP-76 peptide (proprietary) and for mormalization an a-alpha-Tubulin. mouse monoclonal antibody (Sigma #T9026). […] Cells with a-CD3 treatment only were used as negative control (min control. which represent the minimally possible inhibition of pSer376-SLP-76 by a test compound)
AUC values of each respective test sample were normalized using the AUC of housekeeping gene alpha-Tubulin and AUC of pSer376-SLP-76 of the min control. The percentage of the amount of pSer-SLP-76 in the treatment samples was calculated using the max control and min control values of the respective Peggy Sue™ run.

[2] = biological target: MAP4K1 (Homo sapiens, UniProt Q92918); experiment: biochemical
Sequence of MAP4K1 (Q92918 whole entry): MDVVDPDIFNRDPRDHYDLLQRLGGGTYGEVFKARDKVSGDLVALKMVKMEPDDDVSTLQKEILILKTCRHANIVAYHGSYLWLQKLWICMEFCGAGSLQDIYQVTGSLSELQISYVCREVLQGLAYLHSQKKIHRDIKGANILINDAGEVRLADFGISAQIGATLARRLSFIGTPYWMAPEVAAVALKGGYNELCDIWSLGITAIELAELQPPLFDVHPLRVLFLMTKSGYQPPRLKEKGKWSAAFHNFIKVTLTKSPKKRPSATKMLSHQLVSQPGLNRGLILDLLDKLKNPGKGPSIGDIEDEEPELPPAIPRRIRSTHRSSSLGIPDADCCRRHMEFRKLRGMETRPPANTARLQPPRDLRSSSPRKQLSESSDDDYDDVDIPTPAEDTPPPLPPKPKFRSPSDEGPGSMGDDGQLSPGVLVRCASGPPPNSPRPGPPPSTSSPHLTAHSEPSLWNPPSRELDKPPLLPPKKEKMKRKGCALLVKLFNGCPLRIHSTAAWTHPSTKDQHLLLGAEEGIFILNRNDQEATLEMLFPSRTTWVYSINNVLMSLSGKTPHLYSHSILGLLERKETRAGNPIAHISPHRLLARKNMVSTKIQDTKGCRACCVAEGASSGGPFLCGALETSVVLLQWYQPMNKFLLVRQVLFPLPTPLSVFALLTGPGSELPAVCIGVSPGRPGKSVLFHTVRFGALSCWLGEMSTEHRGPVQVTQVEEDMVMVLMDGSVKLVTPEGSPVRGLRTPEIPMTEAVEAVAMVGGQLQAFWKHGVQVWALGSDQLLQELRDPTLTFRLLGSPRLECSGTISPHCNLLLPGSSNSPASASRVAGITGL

Row | Compound | % amount of pSer376-SLP-76 @ 10 μM [1] [%] | % amount of pSer376-SLP-76 @ 20 μM [1] [%] | IC50 [2] [nM]
1 | O=C(NCCN1CCOCC1)Nc1ccc(Oc2ccnc3[nH]cc(C(F)(F)F)c23)cc1 [Example 1, 1-[2-(morpholin-4-yl)ethyl]-3-(4-{[3-(trifluoromethyl)-1H-pyrrolo[2,3-b]pyridin-4-yl]oxy}phenyl)urea] | 40.8 | 16.0 | –
2 | Cc1cc(NC(=O)NCCCN2CCOCC2)ccc1Oc1ccnc2[nH]cc(C(F)(F)F)c12 [Example 4, 1-(3-methyl-4-{[3-(trifluoromethyl)-1H-pyrrolo[2,3-b]pyridin-4-yl]oxy}phenyl)-3-[3-(morpholin-4-yl)propyl]urea] | 45.6 | 18.1 | 74
3 | Cc1cc(NC(=O)NCCN2CCOCC2)ccc1Oc1ccnc2[nH]cc(C(F)(F)F)c12 [Example 5, 1-(3-methyl-4-{[3-(trifluoromethyl)-1H-pyrrolo[2,3-b]pyridin-4-yl]oxy}phenyl)-3-[2-(morpholin-4-yl)ethyl]urea] | 48.1 | 25.3 | –
4 | N#Cc1cc(NC(=O)NCCN2CCOCC2)ccc1Oc1ccnc2[nH]cc(C(F)(F)F)c12 [Example 6, 1-(3-cyano-4-{[3-(trifluoromethyl)-1H-pyrrolo[2,3-b]pyridin-4-yl]oxy}phenyl)-3-[2-(morpholin-4-yl)ethyl]urea] | – | – | 212
5 | N#Cc1cc(NC(=O)NCCCN2CCOCC2)ccc1Oc1ccnc2[nH]cc(C(F)(F)F)c12 [Example 7, 1-(3-cyano-4-{[3-(trifluoromethyl)-1H-pyrrolo[2,3-b]pyridin-4-yl]oxy}phenyl)-3-[3-(morpholin-4-yl)propyl]urea] | – | – | 138
